Measured values from patent US20030186345A1, “Macromolecular enzyme substrates” (priority 2003, published 2003).
*1 amine or outer side, *2 acyl side, *3 side chain or, on linkers, in order; H or OH if unused. Where a SMILES comes first, the peptide text is derived from it. [ ]: non-standard residue; d: D form. The star is where a group is joined. pNA = O=[N+]([O-])c1ccc(N*)cc1; Suc = O=C(CCC(=O)[*:2])[*:1]

Key:
thrombin [1] = target: T1, thrombin (Homo sapiens, UniProt P00734); assay: Cleavage of pNA substrates by thrombin, kinetic parameters; type: biochemical; design: Human thrombin, bovine chymotrypsin; purchased Sigma Chemical Co. (St. Louis, Mo.); settings: 37° C.; means of triplicates
Description: Measurements of protease activity at 25° C. or 37° C. were performed and analyzed as previously described (Hortin and Trimpe, J. Biol. Chem. 266:6866-6871, 1991) with a Cobas FARA analyzer (Roche Diagnostic Systems, Somerville, N.J.). […] Kinetic parameters were calculated from initial rates of reactions using Lineweaver-Burke plots. […] These reactions were performed in 100 mM tris(hydroxymethyl)-aminomethane pH 7.8 with 10 mm CaCl2. Substrate concentration were determined by absorbance at 342 nm, using an extinction coefficient of 8,260 mol^−1 and several concentrations were confirmed by absorbance measures at 405 or 410 nm after substrate hydrolysis, with extinction coefficient of 9,900 or 8,600 mol^−1, respectively, for the p-nitroaniline product (Lottenberg and Jackson, Biochim. Biophys. Acta 742:558-564, 1983). Molar concentration of chymotrypsin was determined by active site titration with p-nitrophenyl guanidinobenzoate and thrombin concentrations by titration with highly purified hirudin.

trypsin = target: T2, trypsin (Bos taurus, UniProt P00760); assay: Inhibition of substrate cleavage by α2-macroglobulin, trypsin; type: biochemical, bovine; settings: excess inhibitor
T2 construct: purchased Worthington Biochemicals Co. (trypsin); Calbiochem (α2-macroglobulin)
T2 sequence (P00760 24-246): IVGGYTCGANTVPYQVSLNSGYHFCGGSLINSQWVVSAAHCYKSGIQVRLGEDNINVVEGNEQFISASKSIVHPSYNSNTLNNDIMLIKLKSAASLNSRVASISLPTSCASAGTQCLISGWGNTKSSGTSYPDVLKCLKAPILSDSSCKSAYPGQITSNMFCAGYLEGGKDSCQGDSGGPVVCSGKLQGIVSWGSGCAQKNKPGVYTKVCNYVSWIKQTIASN
Description: (§2) Measurements of protease activity at 25° C. or 37° C. were performed and analyzed as previously described (Hortin and Trimpe, J. Biol. Chem. 266:6866-6871, 1991) with a Cobas FARA analyzer (Roche Diagnostic Systems, Somerville, N.J.). […] Kinetic parameters were calculated from initial rates of reactions using Lineweaver-Burke plots. […] These reactions were performed in 100 mM tris(hydroxymethyl)-aminomethane pH 7.8 with 10 mm CaCl2. Substrate concentration were determined by absorbance at 342 nm, using an extinction coefficient of 8,260 mol^−1 and several concentrations were confirmed by absorbance measures at 405 or 410 nm after substrate hydrolysis, with extinction coefficient of 9,900 or 8,600 mol^−1, respectively, for the p-nitroaniline product (Lottenberg and Jackson, Biochim. Biophys. Acta 742:558-564, 1983). […] Trypsin concentration was estimated based on weight, assuming 100% activity. For studies of trypsin and thrombin, α2-macro-globulin was pretreated with a 200-fold molar excess of p-amidinophenylmethyl-sulfonylfluoride in order to inactivate any protease trapped within the inhibitor and left at 4° C. for 72 hours before use to allow complete decay of the sulfonylfluoride.

thrombin [2] = target: T1, thrombin; assay: Inhibition of substrate cleavage by α2-macroglobulin, thrombin; type: biochemical; design: Human thrombin, bovine chymotrypsin; purchased Sigma Chemical Co. (thrombin); Calbiochem (α2-macroglobulin); settings: excess inhibitor
Description: as §2

salivary amylase [3] = target: T3, salivary amylase (Homo sapiens, UniProt P0DUB6); assay: Amylase assay, Km determination, salivary amylase; type: biochemical; settings: 37° C.; HEPES buffer pH 7.15
T3 construct: purchased Sigma (St. Louis, Mo.)
T3 sequence (P0DUB6 16-511): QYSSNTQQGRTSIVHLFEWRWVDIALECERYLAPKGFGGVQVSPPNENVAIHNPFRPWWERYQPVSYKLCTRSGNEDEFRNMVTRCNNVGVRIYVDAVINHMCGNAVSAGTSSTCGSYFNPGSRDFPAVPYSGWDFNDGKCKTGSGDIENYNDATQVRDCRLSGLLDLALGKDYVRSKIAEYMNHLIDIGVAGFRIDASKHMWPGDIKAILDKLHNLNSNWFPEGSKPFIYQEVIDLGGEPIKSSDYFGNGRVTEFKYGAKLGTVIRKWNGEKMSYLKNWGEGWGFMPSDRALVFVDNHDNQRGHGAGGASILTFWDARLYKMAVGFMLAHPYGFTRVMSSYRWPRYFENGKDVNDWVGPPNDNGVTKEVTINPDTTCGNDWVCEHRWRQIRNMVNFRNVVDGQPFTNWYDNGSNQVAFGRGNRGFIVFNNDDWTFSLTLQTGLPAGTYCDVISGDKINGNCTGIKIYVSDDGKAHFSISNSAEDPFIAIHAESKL
Description: (§1) Amylase assays using oligosaccharide substrates were automated using a Cobas Fara analyzer (Roche, Basel, Switzerland). Unless indicated, assay temperature was 37° C., and absorbance changes were measured at 405 nm every minute over a 20 minute period. Assay buffer was either 52.5 mmol/L 4-(2-hydroxyethyl)-1-piperazine-ethanesulfonic acid (HEPES) buffer, pH 7.15, 87 mmol/L sodium chloride, 12.6 mmol/L magnesium chloride, 0.075 mmol/L calcium chloride (HEPES buffer) or 50 mmol/L MES, pH 6.0, 350 mmol/L sodium chloride, 6 mmol/L calcium acetate, 900 mmol/L KSCN (MES buffer). Amylases were diluted into assay buffer containing 1 mg/mL rabbit albumin. Final reaction volumes were 200 μL and consisted of 3 solutions, R1, R2, and R3. […] Depending upon the assay, R2 and R3 contained either amylase or substrate. R1 and R2 solutions were mixed for 10 seconds prior to the addition of R3. For immunoinhibition studies, antibodies were preincubated with amylase (R2) for 30 minutes at room temperature prior to the addition of substrate (R3). Unless indicated, final concentrations of MABs were 10 mg/L. Reaction blanks were determined by measuring the absorbance of substrate or enzyme alone at 405 nm. When EtG7pNP or mPEG-EtG7pNP were used as substrates, α-glucosidase was included in the blank measurement. Differences between the test samples and reagent blanks were determined. Activity of stock solutions of amylase was based on activity measured with a Hitachi 917 analyzer using a Roche kit (Cat. No 1876473) (Indianapolis, Ind.) which uses EtG7pNP as the substrate. For Km determinations, 4 or 5 different substrate concentrations (0.05 mmol/L to 6 mmol/L) with salivary (4-20 U/L) or pancreatic (4-40 U/L) amylase were used.

salivary amylase [4] = target: T3, salivary amylase; assay: Immunoinhibition by MABs, salivary amylase, oligosaccharide substrates; type: biochemical; settings: salivary isoenzyme, 20 U/I (G5, G7 substrates) or 600 U/I (G3 substrates), 100% = no MAB
Description: as §1
When both MABs were used, MAB 88E8 concentrations were varied in the presence of 10 mg/L MAB 66C7. At an antibody concentration of 10 mg/L, MAB 88E8 inhibits 98% of salivary amylase activity in HEPES buffer and 34% of salivary amylase activity in MES buffer. MAB 66C7 increases salivary amylase activity in HEPES buffer and has no effect on salivary amylase activity in MES buffer. Using a mixture of MABs 88E8 and 66C7 at concentrations of […], >99% of salivary amylase activity is inhibited in HEPES buffer and 73% of salivary amylase activity is inhibited in MES buffer. When the pH of the MES buffer was increased from 6.0 to 6.5 and the concentration of KSCN was decreased from 900 mmol/L to 300 mmol/L, >97% of salivary amylase activity was inhibited by MAB 88E8.

pancreatic amylase [5] = target: T4, pancreatic amylase (Homo sapiens, UniProt P04746); assay: Immunoinhibition by MABs, pancreatic amylase, oligosaccharide substrates; type: biochemical; settings: pancreatic isoenzyme, 40 U/I (G5, G7 substrates) or 400 U/I (G3 substrates), 100% = no MAB
T4 construct: purchased Scripps Laboratories (San Diego, Calif.)
T4 sequence (P04746 16-511): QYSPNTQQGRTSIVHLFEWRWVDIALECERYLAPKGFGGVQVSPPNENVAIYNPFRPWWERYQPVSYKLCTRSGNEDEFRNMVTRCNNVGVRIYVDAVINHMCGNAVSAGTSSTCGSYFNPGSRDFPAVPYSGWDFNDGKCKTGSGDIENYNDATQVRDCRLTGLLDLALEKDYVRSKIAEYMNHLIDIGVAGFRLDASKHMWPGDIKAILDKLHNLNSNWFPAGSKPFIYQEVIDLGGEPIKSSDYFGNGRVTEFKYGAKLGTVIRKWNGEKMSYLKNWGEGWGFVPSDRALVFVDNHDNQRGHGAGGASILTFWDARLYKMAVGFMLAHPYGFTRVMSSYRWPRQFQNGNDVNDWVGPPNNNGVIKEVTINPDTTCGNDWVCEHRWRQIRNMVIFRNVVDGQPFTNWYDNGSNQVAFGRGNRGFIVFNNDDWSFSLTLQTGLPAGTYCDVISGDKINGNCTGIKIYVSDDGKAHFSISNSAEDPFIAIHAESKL
Description: as §1

pancreatic amylase [6] = target: T4, pancreatic amylase; assay: Amylase assay, Km determination, pancreatic amylase; type: biochemical; settings: 37° C.; HEPES buffer pH 7.15
Description: as §1, with “Assay buffer was either 52.5 mmol/L 4-(2-hydroxyethyl)-1-piperazine-ethanesulfonic acid (HEPES) buffer, pH 7.15, 87 mmol/L sodium chloride, 12.6 mmol/L magnesium chloride, 0.075 mmol/L calcium chloride (HEPES buffer) or 50 mmol/L MES, pH 6.0, 350 mmol/L sodium chloride, 6 mmol/L calcium acetate, 900 mmol/L KSCN (MES buffer).” left out

chymotrypsin = chymotrypsin (Bos taurus, UniProt P00766); assay: Inhibition of substrate cleavage by α2-macroglobulin, chymotrypsin
Description: Measurements of protease activity at 25° C. or 37° C. were performed and analyzed as previously described (Hortin and Trimpe, J. Biol. Chem. 266:6866-6871, 1991) with a Cobas FARA analyzer (Roche Diagnostic Systems, Somerville, N.J.). […] Kinetic parameters were calculated from initial rates of reactions using Lineweaver-Burke plots. […] These reactions were performed in 100 mM tris(hydroxymethyl)-aminomethane pH 7.8 with 10 mm CaCl2. Substrate concentration were determined by absorbance at 342 nm, using an extinction coefficient of 8,260 mol^−1 and several concentrations were confirmed by absorbance measures at 405 or 410 nm after substrate hydrolysis, with extinction coefficient of 9,900 or 8,600 mol^−1, respectively, for the p-nitroaniline product (Lottenberg and Jackson, Biochim. Biophys. Acta 742:558-564, 1983). Molar concentration of chymotrypsin was determined by active site titration with p-nitrophenyl guanidinobenzoate and thrombin concentrations by titration with highly purified hirudin. Trypsin concentration was estimated based on weight, assuming 100% activity. For studies of trypsin and thrombin, α2-macro-globulin was pretreated with a 200-fold molar excess of p-amidinophenylmethyl-sulfonylfluoride in order to inactivate any protease trapped within the inhibitor and left at 4° C. for 72 hours before use to allow complete decay of the sulfonylfluoride.

[7] = system: C[C@H](NC(=O)CCC(=O)O)C(=O)N[C@@H](C)C(=O)N1CCC[C@H]1C(=O)N[C@@H](Cc1ccccc1)C(=O)Nc1ccc([N+](=O)[O-])cc1; assay: purified protein, by the assay type; settings: other: 37° C., means of triplicates, pH 7.8
20S proteasomes = target: T5, 20S proteasomes (Methanosarcina thermophila, UniProt Q9P992); assay: Substrate cleavage by 20S proteasomes; type: biochemical
T5 construct: purchased Calbiochem (La Jolla, Calif.); host or cells: Escherichia coli
T5 sequence (Q9P992 10-210): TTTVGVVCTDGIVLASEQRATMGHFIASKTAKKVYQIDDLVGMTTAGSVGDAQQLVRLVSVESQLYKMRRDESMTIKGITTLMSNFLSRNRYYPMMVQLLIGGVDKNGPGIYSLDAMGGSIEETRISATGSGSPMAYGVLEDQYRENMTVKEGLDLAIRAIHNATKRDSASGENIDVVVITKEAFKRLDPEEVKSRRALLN
T5 sequence (Q59565 1-247 partner): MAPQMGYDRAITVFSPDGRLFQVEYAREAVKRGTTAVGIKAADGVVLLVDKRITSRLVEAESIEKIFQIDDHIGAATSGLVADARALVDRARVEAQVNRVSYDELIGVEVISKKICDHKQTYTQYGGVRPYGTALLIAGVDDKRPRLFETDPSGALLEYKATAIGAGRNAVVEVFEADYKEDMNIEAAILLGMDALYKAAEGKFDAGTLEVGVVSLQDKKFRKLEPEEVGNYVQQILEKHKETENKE
Description: Enzyme assays. Assays of proteasome activity were performed at 37° C. unless otherwise indicated. […] Reactions were in a buffer consisting of 100 mM Tris(hydroxymethyl)aminomethane, pH 7.2 with 1 mM dithiothreitol.

`CC(=O)N[C@H](Cc1ccccc1)C(=O)N1CCCC[C@H]1C(=O)N[C@@H](CCCNC(=N)N)C(=O)Nc1ccc([N+](=O)[O-])cc1` [Ac-D-Phe-Pip-Arg-pNA] gave a Km (thrombin [1]) of 23 µM and a kcat (thrombin [1]) of 3.0 S^−1.
For `CC[C@@H](C)[C@@H](N)C(=O)N1CCC[C@H]1C(=O)N[C@@H](CCCNC(=N)N)C(=O)Nc1ccc([N+](=O)[O-])cc1` [D-Ile-Pro-Arg-pNA] (H-[dI]-Pro-Arg-pNA), the “Inhibition of trypsin activity by excess α2-macroglobulin” value (trypsin) was 40-50%, the Km (thrombin [1]) was 12 µM and the kcat (thrombin [1]) was 105 S^−1.
With `N=C(N)NCCC[C@H](NC(=O)[C@@H]1CCCCN1C(=O)[C@H](N)Cc1ccccc1)C(=O)Nc1ccc([N+](=O)[O-])cc1` [D-Phe-Pip-Arg-pNA] the “Inhibition of thrombin activity by excess α2-macroglobulin” value (thrombin [2]) was 40-50%, the Km (thrombin [1]) was 6.1 µM and the kcat (thrombin [1]) was 65 S^−1.
For `O=[N+]([O-])c1ccc(OC2OC(CO)C(OC3OC(CO)C(OC4OC(CO)C(OC5OC(CO)C(OC6OC(CO)C(O)C(O)C6O)C(O)C5O)C(O)C4O)C(O)C3O)C(O)C2O)cc1` [Substrate G5pNP, p-nitrophenyl-α-D-maltopentaoside], the Km (salivary amylase [3]) was 400 µM, the “% activity with MAB 88E8 + 66C7” value (salivary amylase [4]) was 2% and the “% activity with MAB 66C7” value (salivary amylase [4]; MAB 10 mg/L) was 105%. For the same molecule, the “% activity with MAB 88E8” value (salivary amylase [4]; MAB 10 mg/L) was 6%, the “% activity with MAB 88E8 + 66C7” value (pancreatic amylase [5]) was 95% and the “% activity with MAB 66C7” value (pancreatic amylase [5]; MAB 10 mg/L) was 103%. The “% activity with MAB 88E8” value (pancreatic amylase [5]; MAB 10 mg/L) was 101% and the Km (pancreatic amylase [6]) was 280 µM.
In the case of `C[C@H](NC(=O)CCC(=O)O)C(=O)N[C@@H](C)C(=O)N1CCC[C@H]1C(=O)N[C@@H](Cc1ccccc1)C(=O)Nc1ccc([N+](=O)[O-])cc1` [Suc-Ala-Ala-Pro-Phe-pNA, succinyl-Ala-Ala-Pro-Phe-pNA] (Suc-AAPF-pNA), the “Maximal inhibition of chymotrypsin activity by excess α2-macroglobulin” value (chymotrypsin; increasing α2-macroglobulin added to a fixed amount of chymotrypsin) is reported as “about 60%”.
Work on bovine chymotrypsin (Bos taurus) yielded a Km [7] of 40 µM, a kcat [7] of 120 s⁻¹ and a kcat/Km [7] of 3e+06 M⁻¹ s⁻¹.
For “succinyl-Ala-Ala-Phe-p-nitroanilide [Suc-Ala-Ala-Phe-pNA]”, the “Rate Plus α2-M” value (chymotrypsin; chymotrypsin 2.5 μg/ml, 0.5 mM substrate, after incubation with excess α2-macroglobulin (250 μ/ml), means ± SD) was 12.3 ± 0.1 µmol/L/min, the “Rate Minus α2-M” value (chymotrypsin; chymotrypsin 2.5 μg/ml, 0.5 mM substrate, before incubation with α2-macroglobulin, means ± SD) was 21.7 ± 0.2 µmol/L/min and the “Inhibition of substrate cleavage by α2-macroglobulin” value (chymotrypsin; chymotrypsin 2.5 μg/ml, 0.5 mM substrate, excess α2-macroglobulin) was 43%. For the same molecule, the “Rate of substrate cleavage by 20s proteasomes” value (20S proteasomes; each substrate at 1 mM, 37° C., mean ± SD) was 0.0061 ± 0.0001 ΔA405/10 min and the “Rate of cleavage greater than Ala-Ala-Phe-pNA” value (20S proteasomes; substrate 0.5-3 mM, 30-50° C.) was 50-100%.
